From ChEMBL document CHEMBL3881530, “Compounds and methods for inhibiting NHE-mediated antiport in the treatment of disorders associated with fluid retention or salt overload and gastrointestinal tract disorders” (2013)

Columns and labels:
[1] = molecular target: T1, Sodium/hydrogen exchanger 3 (Homo sapiens, UniProt P48764); test: Inhibition of NHE-3 (unknown origin)
T1 sequence (P48764 whole entry): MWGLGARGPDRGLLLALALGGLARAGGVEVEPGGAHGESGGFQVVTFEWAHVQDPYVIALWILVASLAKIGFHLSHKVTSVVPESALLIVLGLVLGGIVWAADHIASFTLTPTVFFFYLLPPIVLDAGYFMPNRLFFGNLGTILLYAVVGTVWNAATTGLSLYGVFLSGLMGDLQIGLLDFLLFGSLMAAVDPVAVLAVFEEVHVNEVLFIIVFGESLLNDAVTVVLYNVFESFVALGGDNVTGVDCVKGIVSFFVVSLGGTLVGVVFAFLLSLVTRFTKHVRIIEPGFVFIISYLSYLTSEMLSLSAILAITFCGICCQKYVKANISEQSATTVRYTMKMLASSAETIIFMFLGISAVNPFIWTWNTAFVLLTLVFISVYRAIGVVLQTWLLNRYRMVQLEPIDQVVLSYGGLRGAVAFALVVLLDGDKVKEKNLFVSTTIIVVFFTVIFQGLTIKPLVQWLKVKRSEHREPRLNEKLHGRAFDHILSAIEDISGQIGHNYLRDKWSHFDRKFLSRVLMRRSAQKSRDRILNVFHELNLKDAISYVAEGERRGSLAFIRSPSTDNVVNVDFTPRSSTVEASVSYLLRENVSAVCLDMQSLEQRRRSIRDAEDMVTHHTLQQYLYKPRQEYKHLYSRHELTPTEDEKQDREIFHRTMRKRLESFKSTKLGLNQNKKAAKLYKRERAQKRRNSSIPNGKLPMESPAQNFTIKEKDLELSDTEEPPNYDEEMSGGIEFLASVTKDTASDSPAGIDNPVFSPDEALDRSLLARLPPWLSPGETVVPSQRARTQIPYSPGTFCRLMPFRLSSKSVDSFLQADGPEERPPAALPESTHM

[2] = molecular target: Sodium/hydrogen exchanger 1 (Homo sapiens, UniProt P19634); test: Inhibition of NHE-1 (unknown origin)
Chain of Sodium/hydrogen exchanger 1 (P19634 whole entry): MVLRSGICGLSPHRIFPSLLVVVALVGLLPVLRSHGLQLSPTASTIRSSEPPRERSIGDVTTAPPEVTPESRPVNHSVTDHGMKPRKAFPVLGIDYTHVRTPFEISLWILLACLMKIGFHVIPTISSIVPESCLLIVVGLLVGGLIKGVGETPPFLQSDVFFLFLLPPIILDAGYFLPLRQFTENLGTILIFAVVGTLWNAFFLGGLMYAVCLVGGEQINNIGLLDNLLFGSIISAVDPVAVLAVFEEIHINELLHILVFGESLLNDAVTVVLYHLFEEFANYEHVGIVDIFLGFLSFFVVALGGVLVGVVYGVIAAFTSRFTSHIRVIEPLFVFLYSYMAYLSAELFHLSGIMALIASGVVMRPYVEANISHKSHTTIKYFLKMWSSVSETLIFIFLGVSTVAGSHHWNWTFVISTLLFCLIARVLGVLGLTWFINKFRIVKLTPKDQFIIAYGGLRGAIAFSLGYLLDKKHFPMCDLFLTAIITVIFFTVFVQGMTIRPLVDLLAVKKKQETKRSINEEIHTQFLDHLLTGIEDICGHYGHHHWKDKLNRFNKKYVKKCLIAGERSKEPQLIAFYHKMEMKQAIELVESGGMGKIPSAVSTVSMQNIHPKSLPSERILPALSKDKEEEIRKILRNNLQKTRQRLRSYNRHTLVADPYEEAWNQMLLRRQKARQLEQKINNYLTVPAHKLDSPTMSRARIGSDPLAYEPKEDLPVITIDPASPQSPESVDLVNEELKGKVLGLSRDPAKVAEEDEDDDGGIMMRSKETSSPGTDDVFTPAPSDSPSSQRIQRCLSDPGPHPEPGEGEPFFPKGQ

[3] = molecular target: T2, Sodium/hydrogen exchanger 2 (Homo sapiens, UniProt Q9UBY0); test: Inhibition of NHE-2 (unknown origin)
T2 sequence (Q9UBY0 whole entry): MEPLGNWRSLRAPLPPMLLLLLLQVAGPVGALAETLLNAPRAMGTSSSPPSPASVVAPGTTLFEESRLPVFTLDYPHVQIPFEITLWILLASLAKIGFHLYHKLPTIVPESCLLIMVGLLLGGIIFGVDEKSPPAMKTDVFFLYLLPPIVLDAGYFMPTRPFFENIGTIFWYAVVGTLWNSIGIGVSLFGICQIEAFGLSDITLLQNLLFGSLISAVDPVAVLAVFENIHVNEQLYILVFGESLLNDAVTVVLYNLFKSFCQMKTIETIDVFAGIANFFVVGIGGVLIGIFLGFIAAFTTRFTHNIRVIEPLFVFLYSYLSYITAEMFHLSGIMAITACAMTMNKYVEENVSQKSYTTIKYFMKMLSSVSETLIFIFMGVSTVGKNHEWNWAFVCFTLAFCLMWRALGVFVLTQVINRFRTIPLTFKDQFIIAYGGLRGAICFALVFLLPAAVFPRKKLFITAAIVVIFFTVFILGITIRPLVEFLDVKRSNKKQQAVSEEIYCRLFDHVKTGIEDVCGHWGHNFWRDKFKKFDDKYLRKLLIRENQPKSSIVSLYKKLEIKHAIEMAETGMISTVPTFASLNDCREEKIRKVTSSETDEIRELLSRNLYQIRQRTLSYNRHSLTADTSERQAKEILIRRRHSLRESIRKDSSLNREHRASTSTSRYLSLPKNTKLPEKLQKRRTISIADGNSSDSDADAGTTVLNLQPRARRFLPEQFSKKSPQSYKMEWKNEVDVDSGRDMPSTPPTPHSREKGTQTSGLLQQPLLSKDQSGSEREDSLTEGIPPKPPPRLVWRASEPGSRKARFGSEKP

[4] = Cmax in Sprague-Dawley rat at 2.2 mg/kg administered via oral gavage measured up to 4 hrs by LC/MS/MS analysis; format: ADME, organism-based; set-up: dose 2.2 mg/kg, route oral; conditions: in vivo
[5] = AUC in Sprague-Dawley rat at 2.2 mg/kg administered via oral gavage measured up to 4 hrs by LC/MS/MS analysis; format: ADME, organism-based; set-up: time < 4 hr, dose 2.2 mg/kg, route oral; conditions: in vivo
Rattus norvegicus [6] = test: Decrease in urinary sodium level in Sprague-Dawley rat administered via oral gavage measured after 16 hrs by ion chromatographic analysis; format: functional
Rattus norvegicus [7] = test: Effect on fecal water content in Sprague-Dawley rat at 3 mg/kg administered via oral gavage measured after 16 hrs relative to control; format: functional
[8] = molecular target: T3, Sodium/hydrogen exchanger 5 (Homo sapiens, UniProt Q14940); test: Inhibition of NHE-5 (unknown origin)
T3 sequence (Q14940 whole entry): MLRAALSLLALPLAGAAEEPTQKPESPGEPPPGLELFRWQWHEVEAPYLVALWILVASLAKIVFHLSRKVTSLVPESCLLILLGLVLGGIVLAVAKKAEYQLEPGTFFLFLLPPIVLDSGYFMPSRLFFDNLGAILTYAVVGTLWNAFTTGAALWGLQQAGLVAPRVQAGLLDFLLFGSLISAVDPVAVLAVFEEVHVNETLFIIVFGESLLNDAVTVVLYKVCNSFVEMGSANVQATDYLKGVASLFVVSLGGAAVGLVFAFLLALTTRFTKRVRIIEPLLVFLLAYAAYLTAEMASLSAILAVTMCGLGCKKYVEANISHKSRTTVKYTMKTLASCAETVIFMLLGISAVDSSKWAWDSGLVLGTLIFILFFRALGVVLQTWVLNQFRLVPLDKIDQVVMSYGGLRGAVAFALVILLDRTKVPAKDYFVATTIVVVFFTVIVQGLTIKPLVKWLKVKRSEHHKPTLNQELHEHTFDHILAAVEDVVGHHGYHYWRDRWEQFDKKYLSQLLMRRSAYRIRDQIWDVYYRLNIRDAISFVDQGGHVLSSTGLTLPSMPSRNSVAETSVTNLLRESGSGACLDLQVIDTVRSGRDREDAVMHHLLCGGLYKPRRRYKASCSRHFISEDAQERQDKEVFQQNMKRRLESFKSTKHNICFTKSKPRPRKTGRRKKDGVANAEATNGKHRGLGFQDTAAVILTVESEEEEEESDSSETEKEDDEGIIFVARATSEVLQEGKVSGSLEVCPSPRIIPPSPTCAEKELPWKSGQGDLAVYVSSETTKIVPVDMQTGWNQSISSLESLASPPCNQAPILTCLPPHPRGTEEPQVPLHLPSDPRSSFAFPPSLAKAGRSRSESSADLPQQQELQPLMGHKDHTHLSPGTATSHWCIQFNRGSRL

[9] = AUC in Sprague-Dawley rat at 28 mg/kg administered via oral gavage measured up to 4 hrs by LC/MS/MS analysis; format: ADME, organism-based; set-up: time < 4 hr, dose 28 mg/kg, route oral; conditions: in vivo
[10] = Cmax in Sprague-Dawley rat at 28 mg/kg administered via oral gavage measured up to 4 hrs by LC/MS/MS analysis; format: ADME, organism-based; set-up: dose 28 mg/kg, route oral; conditions: in vivo
[11] = Drug recovery in Sprague-Dawley rat feces at 0.1 mg/kg administered via oral gavage measured after 72 hrs by LC/MS/MS analysis; format: ADME, organism-based; conditions: faeces, read-out: Drug recovery
Rattus norvegicus [12] = test: Increase in fecal water content in Sprague-Dawley rat administered via oral gavage measured after 16 hrs; format: functional

Cc1ccc(F)cc1[C@H]1C/C(=N\N=C(N)N)c2c(C)cccc2C1
IC50 [1]: > 30000 nM
IC50 [2]: 35000 nM
IC50 [3]: 310 nM

C/C(=C\c1cc(F)c(Oc2ccc(S(=O)(=O)NCCP(=O)(O)O)cc2)c(F)c1)C(=O)N=C(N)N
Cmax [4]: 9 ng/mL
AUC at 4 h [5]: 23 ng·h/mL

CN1Cc2c(Cl)cc(Cl)cc2[C@H](c2cccc(S(=O)(=O)NCCOCCOCCOCCNC(=O)NCCCCNC(=O)NCCOCCOCCOCCNS(=O)(=O)c3cccc([C@@H]4CN(C)Cc5c(Cl)cc(Cl)cc54)c3)c2)C1 (single isomer, unassigned)
Activity (Rattus norvegicus [6]): Dose-dependent effect
Activity (Rattus norvegicus [7]): 118%

CN1Cc2c(Cl)cc(Cl)cc2C(c2cccc(S(=O)(=O)NCCOCCOCCNC(=O)c3ccc(C(=O)NCCOCCOCCNS(=O)(=O)c4cccc(C5CN(C)Cc6c(Cl)cc(Cl)cc65)c4)cc3)c2)C1 (stereo not given)
Activity (Rattus norvegicus [7]): 117%

CN1Cc2c(Cl)cc(Cl)cc2C(c2cccc(S(=O)(=O)NCCOCCOCCNC(=O)NCCCCNC(=O)NCCOCCOCCNS(=O)(=O)c3cccc(C4CN(C)Cc5c(Cl)cc(Cl)cc54)c3)c2)C1 (stereo not given)
Activity (Rattus norvegicus [7]): 128%

C/C(=C\c1cccc(/C=C(\C)C(=O)NC(=N)N)c1)C(=O)N=C(N)N
IC50 [1]: 1320 nM
IC50 [2]: 2 nM
IC50 [3]: 70 nM

CN1Cc2c(Cl)cc(Cl)cc2C(c2cccc(NC(=O)N[C@@H](CC(=O)O)C(=O)O)c2)C1 (stereo not given in full)
Cmax [4]: 2.4 ng/mL
AUC at 4 h [5]: 5 ng·h/mL

Cc1cc(-n2cccc2)c(S(C)(=O)=O)cc1C(=O)NC(=N)N [ENIPORIDE]
IC50 [1]: 100000 to 460000 nM
IC50 [8]: > 30000 nM
IC50 [2]: 5 to 380 nM
IC50 [3]: 2000 to 17000 nM

CN1Cc2c(Cl)cc(Cl)cc2[C@H](c2ccc(S(=O)(=O)NCCOCCOCCOCCNC(=O)NCCOCCOCCOCCNS(=O)(=O)c3ccc([C@@H]4CN(C)Cc5c(Cl)cc(Cl)cc54)cc3)cc2)C1 (mixture of isomers)
Activity (Rattus norvegicus [7]): 120%

CN1Cc2c(Cl)cc(Cl)cc2[C@H](c2ccc(S(=O)(=O)NCCOCCOCCNC(=O)COCC(=O)NCCOCCOCCNS(=O)(=O)c3ccc([C@@H]4CN(C)Cc5c(Cl)cc(Cl)cc54)cc3)cc2)C1.Cl.Cl (single isomer, unassigned)
Activity (Rattus norvegicus [6]): Dose-dependent effect
Activity (Rattus norvegicus [7]): 127%

CN1Cc2c(Cl)cc(Cl)cc2C(c2cccc(S(=O)(=O)NCCOCCOCCNC(=O)Nc3ccc(NC(=O)NCCOCCOCCNS(=O)(=O)c4cccc(C5CN(C)Cc6c(Cl)cc(Cl)cc65)c4)cc3)c2)C1 (stereo not given)
Activity (Rattus norvegicus [7]): 120%

CN1Cc2c(Cl)cc(Cl)cc2C(c2cccc(S(=O)(=O)NCCOCCOCCOCCNC(=O)C(O)C(O)C(=O)NCCOCCOCCOCCNS(=O)(=O)c3cccc(C4CN(C)Cc5c(Cl)cc(Cl)cc54)c3)c2)C1 (single isomer, unassigned)
Activity (Rattus norvegicus [7]): 125%

CN1Cc2c(Cl)cc(Cl)cc2[C@H](c2ccc(S(=O)(=O)NCCOCCOCCNC(=O)CCC(=O)NCCOCCOCCNS(=O)(=O)c3ccc([C@@H]4CN(C)Cc5c(Cl)cc(Cl)cc54)cc3)cc2)C1.Cl.Cl (single isomer, unassigned)
Activity (Rattus norvegicus [7]): 124%

CC1(C)[C@H](C(=O)N=C(N)N)[C@H]1c1cccc2c1CCO2
IC50 [1]: > 30000 nM
IC50 [3]: 1800 nM

CN1Cc2c(Cl)cc(Cl)cc2C(c2ccc(S(=O)(=O)NCCOCCOCCNC(=O)C(=O)NCCOCCOCCNS(=O)(=O)c3ccc(C4CN(C)Cc5c(Cl)cc(Cl)cc54)cc3)cc2)C1 (stereo not given)
AUC at 4 h [9]: 6 ng·h/mL
Cmax [10]: 8 ng/mL

CN1Cc2c(Cl)cc(Cl)cc2C(c2cccc(NCCOCCOCCOCCNC(=O)C(O)C(O)C(=O)NCCOCCOCCOCCNc3cccc(C4CN(C)Cc5c(Cl)cc(Cl)cc54)c3)c2)C1 (stereo not given)
AUC at 4 h [9]: 19 ng·h/mL
Cmax [10]: 23 ng/mL

CN1Cc2c(Cl)cc(Cl)cc2C(c2ccc(S(=O)(=O)NCCOCCOCCNC(=O)CCC(=O)NCCOCCOCCNS(=O)(=O)c3ccc(C4CN(C)Cc5c(Cl)cc(Cl)cc54)cc3)cc2)C1 (stereo not given)
Activity (Rattus norvegicus [7]): 121%

CN1Cc2c(Cl)cc(Cl)cc2[C@H](c2cccc(S(=O)(=O)NCCOCCOCCNC(=O)NCCCCNC(=O)NCCOCCOCCNS(=O)(=O)c3cccc([C@@H]4CN(C)Cc5c(Cl)cc(Cl)cc54)c3)c2)C1.Cl.Cl (single isomer, unassigned) [TENAPANOR HYDROCHLORIDE]
dose excreted at 72 h [11]: 90.5 to 93.8%
Activity (Rattus norvegicus [7]): 134%

CC(C)c1ccc(C(=O)NC(=N)N)cc1S(C)(=O)=O [CARIPORIDE]
IC50 [1]: 1000 to 100000 nM
IC50 [8]: > 30000 nM
IC50 [2]: 30 to 3400 nM
IC50 [3]: 4300 to 62000 nM

CN1Cc2c(Cl)cc(Cl)cc2[C@H](c2cccc(S(=O)(=O)NCCOCCOCCNC(=O)Nc3ccc(NC(=O)NCCOCCOCCNS(=O)(=O)c4cccc([C@@H]5CN(C)Cc6c(Cl)cc(Cl)cc65)c4)cc3)c2)C1.Cl.Cl (single isomer, unassigned)
dose excreted at 72 h [11]: 75.8 to 104%
Activity (Rattus norvegicus [7]): 130%

CN1Cc2c(Cl)cc(Cl)cc2C(c2ccc(S(=O)(=O)NCCOCCOCCNC(=O)COCC(=O)NCCOCCOCCNS(=O)(=O)c3ccc(C4CN(C)Cc5c(Cl)cc(Cl)cc54)cc3)cc2)C1 (stereo not given)
Activity (Rattus norvegicus [7]): 118%

CN1Cc2c(Cl)cc(Cl)cc2C(c2cccc(S(=O)(=O)NCCOCCOCCOCCNC(=O)C(O)C(O)C(=O)NCCOCCOCCOCCNS(=O)(=O)c3cccc(C4CN(C)Cc5c(Cl)cc(Cl)cc54)c3)c2)C1 (stereo not given)
Activity (Rattus norvegicus [12]): Dose-dependent effect

CN1Cc2c(Cl)cc(Cl)cc2C(c2ccc(S(=O)(=O)NCCOCCOCCNC(=O)Nc3ccc(NC(=O)NCCOCCOCCNS(=O)(=O)c4ccc(C5CN(C)Cc6c(Cl)cc(Cl)cc65)cc4)cc3)cc2)C1 (stereo not given)
Activity (Rattus norvegicus [7]): 114%

Cc1ccc(F)cc1[C@@H]1C/C(=N\N=C(N)N)c2c(C)cccc2C1
IC50 [1]: 11000 nM
IC50 [2]: 1 nM
IC50 [3]: 430 nM
